Columns and labels:
[1] = target: T1, P. falciparum enolase (Pf enolase) (Plasmodium falciparum, UniProt Q8IJN7); experiment: ITC with purified enzyme (n = […], ΔG −[…] Kcal/mol, Kd not given); IC50 from enzyme inhibition assay; format: biochemical
T1 construct: gene ENO; recombinant full-length Plasmodium enolase, expressed in E. coli, His-tag-thioredoxin removed by TEV protease

[2] = target: the molecule itself; experiment: SEC; Superdex 200 16/60, 20 mM Tris-HCl pH 8.0, 200 mM NaCl; single symmetric peak of the purified recombinant protein

| Molecule | IC50 [1] [µM] | stoichiometry N [2] |
| --- | --- | --- |
| C=CC1=C(C)/C(=C/C2=NC(=C\c3[nH]c(/C=C4\NC(=O)C(C)=C4C=C)c(C)c3CCC(=O)O)/C(CCC(=O)O)=C2C)NC1=O [BV, biliverdin] | 27 ± 4 |  |
| Plasmodium falciparum enolase (enzyme, UniProt Q8IJN7 1-446, looked up, Enolase of Plasmodium falciparum, expressed from the P. falciparum enolase-pETTrx-1a plasmid; the abstract calls it recombinant full-length Plasmodium enolase; The His-tag-thioredoxin was removed by TEV protease; also called Pf enolase; P. falciparum enolase; source: E. coli Rosetta (DE3), purified (HisTrap, TEV digestion, second HisTrap, Superdex 200)) MAHVITRINAREILDSRGNPTVEVDLETNLGIFRAAVPSGASTGIYEALELRDNDKSRYLGKGVQKAIKNINEIIAPKLIGMNCTEQKKIDNLMVEELDGSKNEWGWSKSKLGANAILAISMAVCRAGAAANKVSLYKYLAQLAGKKSDQMVLPVPCLNVINGGSHAGNKLSFQEFMIVPVGAPSFKEALRYGAEVYHTLKSEIKKKYGIDATNVGDEGGFAPNILNANEALDLLVTAIKSAGYEGKVKIAMDVAASEFYNSENKTYDLDFKTPNNDKSLVKTGAQLVDLYIDLVKKYPIVSIEDPFDQDDWENYAKLTAAIGKDVQIVGDDLLVTNPTRITKALEKNACNALLLKVNQIGSITEAIEACLLSQKNNWGVMVSHRSGETEDVFIADLVVALRTGQIKTGAPCRSERNAKYNQLLRIEESLGNNAVFAGEKFRLQLN |  | 2 |

Source: PMC4768138, “Biliverdin targets enolase and eukaryotic initiation factor 2 (eIF2α) to reduce the growth of intraerythrocytic development of the malaria parasite Plasmodium falciparum” (Scientific Reports, 2016)
